Patent US9120804B2, “8-substituted 2-amino-[1,2,4] triazolo [1, 5-A] pyrazines as Syk tryrosine kinase inhibitors and GCN2 serin kinase inhibitors” (Merck Patent GmbH, priority 2012, dated 2015)

target: T1, SYK (Homo sapiens, UniProt P43405); experiment: SYK flash plate assay (enzyme assay); type: biochemical
T1 construct: 2.5 nM SYK, 400 nM Biotin-Aha-Aha-KEDPDYEWPSAKK
Description: The kinase assay is performed either as 384-well Flashplate assay (for e.g. Topcount measurement) or as 384-well Image-Flashplate assay (for LEADseeker measurement).
2.5 nM SYK, 400 nM Biotin-Aha-Aha-KEDPDYEWPSAKK
and 10 μM ATP (spiked with 0.3 μCi 33P-ATP/well) are incubated in a total volume of 50 μl (60 mM Hepes, 10 mM MgCl2, 1.2 mM Dithiothreitol, 0.02% Brij35, 0.1% BSA, pH 7.5) with or without test compound for 1 hours at 30° C. The reaction is stopped with 25 μl 200 mM EDTA. After 30 Min at 30° C. the liquid is removed and each well washed thrice with 100 μl 0.9% sodium chloride solution. Non-specific reaction is determined in presence of […] Staurosporine. Radioactivity is measured with Topcount (when using Flashplates) or with LEADseeker (when using Image-Flashplates) respectively. Results (e.g. IC50-values) are calculated with program tools provided by the IT-department (e.g. Symyx Assay Explorer, Genedata Screener). In Vivo Assays CIA

| Compound | IC50 [nM] |
| --- | --- |
| Cn1cc(-c2nccn3nc(Nc4ccc5c(c4)NCCC5(C)C)nc23)cn1 [E21, (4,4-dimethyl-1,2,3,4-tetrahydro-quinolin-7-yl)-[8-(1-methyl-1H-pyrazol-4-yl)-[1,2,4]triazolo[1,5-a]pyrazin-2-yl]-amine] | < 100 |
| Cn1cc(-c2nccn3nc(Nc4cc5c(cc4F)C(C)(C)CC(=O)N5)nc23)cn1 [E121, 6-fluoro-4,4-dimethyl-7-[8-(1-methyl-1H-pyrazol-4-yl)-[1,2,4]triazolo[1,5-a]pyrazin-2-ylamino]-3,4-dihydro-1H-quinolin-2-one] | 300 to 3000 |
| CC1(C)C(=O)Nc2cc(Nc3nc4c(N5CCC6(CNC(=O)CO6)C5)nccn4n3)ccc21 (stereo not shown) [E120, 2-[2-(3,3-dimethyl-2-oxo-2,3-dihydro-1H-indol-6-ylamino)-[1,2,4]triazolo[1,5-a]pyrazin-8-yl]-6-oxa-2,9-diaza-spiro[4.5]decan-8-one] | 300 to 3000 |
| CC1(C)C(=O)Nc2cc(Nc3nc4c(N5CC[C@@]6(CCNC6)C5)nccn4n3)ccc21 [E106, 6-[(R)-8-(2,7-diaza-spiro[4.4]non-2-yl)-[1,2,4]triazolo[1,5-a]pyrazin-2-ylamino]-3,3-dimethyl-1,3-dihydro-indol-2-one] | < 100 |
| CC1(C)C(=O)Nc2cc(Nc3nc4c(N5C[C@H](O)C[C@@H]5c5ccccc5)nccn4n3)ccc21 (racemic) [C143, 6-[8-(4-hydroxy-2-phenyl-pyrrolidin-1-yl)-[1,2,4]triazolo[1,5-a]pyrazin-2-ylamino]-3,3-dimethyl-1,3-dihydro-indol-2-one] | 100 to 300 |
| Cn1ncc2cc(-c3nccn4nc(Nc5ccc6c(c5)NC(=O)C6(C)C)nc34)ccc21 [E114] | < 100 |
| CC1(C)C(=O)Nc2cc(Nc3nc4c(NC5CN6CCC5CC6)nccn4n3)ccc21 (stereo not shown) [E135, 6-[8-(1-aza-bicyclo[2.2.2]oct-3-ylamino)-[1,2,4]triazolo[1,5-a]pyrazin-2-ylamino]-3,3-dimethyl-1,3-dihydro-indol-2-one] | < 100 |
| CC1(C)C(=O)Nc2cc(Nc3nc4c(NS(C)(=O)=O)nccn4n3)ccc21 [E104, N-[2-(3,3-dimethyl-2-oxo-2,3-dihydro-1H-indol-6-ylamino)-[1,2,4]triazolo[1,5-a]pyrazin-8-yl]-methanesulfonamide] | 3000 to 50000 |
| CC1(C)C(=O)Nc2cc(Nc3nc4c(N5C[C@@H](CO)C[C@@H]5c5ccccc5)nccn4n3)ccc21 (single isomer, unassigned) [E97, 6-[8-((trans1)-4-hydroxymethyl-2-phenyl-pyrrolidin-1-yl)-[1,2,4]triazolo[1,5-a]pyrazin-2-ylamino]-3,3-dimethyl-1,3-dihydro-indol-2-one] | 300 to 3000 |
| CC1(C)C(=O)Nc2cc(Nc3nc4c(N5CC[C@@]6(CC(=O)NC6=O)C5)nccn4n3)ccc21 [E16, (R)-7-[2-(3,3-dimethyl-2-oxo-2,3-dihydro-1H-indol-6-ylamino)-[1,2,4]triazolo[1,5-a]pyrazin-8-yl]-2,7-diaza-spiro[4.4]nonane-1,3-dione] | < 100 |
| CC1(C)C(=O)Nc2cc(Nc3nc4c(N5CCC6(CCC(=O)N6)CC5)nccn4n3)ccc21 [E35, 8-[2-(3,3-dimethyl-2-oxo-2,3-dihydro-1H-indol-6-ylamino)-[1,2,4]triazolo[1,5-a]pyrazin-8-yl]-1,8-diaza-spiro[4.5]decan-2-one] | < 100 |

Now from value to compound:

| IC50 [nM] | Compound |
| --- | --- |
| 300 to 3000 | CC1(C)C(=O)Nc2cc(Nc3nc4c(C5CCCC5)nccn4n3)ccc21 [E66, 6-(8-cyclopentyl-[1,2,4]triazolo[1,5-a]pyrazin-2-ylamino)-3,3-dimethyl-1,3-dihydro-indol-2-one] |
| 3000 to 50000 | COc1ccc(Nc2nc3c(-c4ccccc4-c4ccccc4)nccn3n2)cc1 [C1, (8-Biphenyl-2-yl-[1,2,4]triazolo[1,5-a]pyrazin-2-yl)-(4-methoxy-phenyl)-amine] |
| 3000 to 50000 | COc1ccccc1Nc1nc2c(-c3ccccc3-c3ccccc3)nccn2n1 [C24, (8-Biphenyl-2-yl-[1,2,4]triazolo[1,5-a]pyrazin-2-yl)-(2-methoxy-phenyl)-amine] |
| < 100 | CC1(C)C(=O)Nc2cc(Nc3nc4c(N5CCCC(=O)CC5)nccn4n3)ccc21 [E72, 3,3-dimethyl-6-[8-(4-oxo-azepan-1-yl)-[1,2,4]triazolo[1,5-a]pyrazin-2-ylamino]-1,3-dihydro-indol-2-one] |
| < 100 | CN1CCOc2cc(-c3nccn4nc(Nc5ccc6c(c5)NC(=O)C6(C)C)nc34)cnc21 [E144, 3,3-dimethyl-6-[8-(4-methyl-3,4-dihydro-2H-pyrido[3,2-b][1,4]oxazin-7-yl)-[1,2,4]triazolo[1,5-a]pyrazin-2-ylamino]-1,3-dihydro-indol-2-one] |
| < 100 | CC1(C)C(=O)Nc2cc(Nc3nc4c(N5CC6CCC(C5)O6)nccn4n3)ccc21 [E67, 3,3-dimethyl-6-[8-(8-oxa-3-aza-bicyclo[3.2.1]oct-3-yl)-[1,2,4]triazolo[1,5-a]pyrazin-2-ylamino]-1,3-dihydro-indol-2-one] |
| 3000 to 50000 | CC1(C)C(=O)Nc2cc(Nc3nc4c(-c5ccc(N(C(F)(F)F)C(F)(F)F)cc5)nccn4n3)ccc21 [E152, 6-{8-[4-(bis-trifluoromethyl-amino)-phenyl]-[1,2,4]triazolo[1,5-a]pyrazin-2-ylamino}-3,3-dimethyl-1,3-dihydro-indol-2-one] |
| 300 to 3000 | CC1(C)C(=O)Nc2cc(Nc3nc4c(N5C[C@H](O)C[C@@H]5c5cccc(F)c5)nccn4n3)ccc21 [E64, 6-{8-[(2R,4R)-2-(3-fluoro-phenyl)-4-hydroxy-pyrrolidin-1-yl]-[1,2,4]triazolo[1,5-a]pyrazin-2-ylamino}-3,3-dimethyl-1,3-dihydro-indol-2-one] |
| 300 to 3000 | CN(c1cccc(C(N)=O)c1)c1nccn2nc(Nc3ccc4c(c3)NC(=O)C4(C)C)nc12 [E151, 3-{[2-(3,3-dimethyl-2-oxo-2,3-dihydro-1H-indol-6-ylamino)-[1,2,4]triazolo[1,5-a]pyrazin-8-yl]-methyl-amino}-benzamide] |
| 3000 to 50000 | NS(=O)(=O)c1ccc(Nc2nc3c(-c4ccccc4-c4ccccc4)nccn3n2)cc1 [C15, 4-(8-Biphenyl-2-yl-[1,2,4]triazolo[1,5-a]pyrazin-2-ylamino)-benzenesulfonamide] |
| < 100 | CC1(C)C(=O)Nc2cc(Nc3nc4c(N5CCNC(=O)CC5)nccn4n3)ccc21 [E74, 3,3-dimethyl-6-[8-(5-oxo-[1,4]diazepan-1-yl)-[1,2,4]triazolo[1,5-a]pyrazin-2-ylamino]-1,3-dihydro-indol-2-one] |
| < 100 | CC1(C)CC(=O)Nc2cc(Nc3nc4c(N5CCC6(CC5)CNC(=O)O6)nccn4n3)ccc21 [E46, 4,4-dimethyl-7-[8-(2-oxo-1-oxa-3,8-diaza-spiro[4.5]dec-8-yl)-[1,2,4]triazolo[1,5-a]pyrazin-2-ylamino]-3,4-dihydro-1H-quinolin-2-one] |
| < 100 | COc1ccc2c(c1)CCN2c1nccn2nc(Nc3ccc4c(c3)NC(=O)C4(C)C)nc12 [E81, 6-[8-(5-methoxy-2,3-dihydro-indol-1-yl)-[1,2,4]triazolo[1,5-a]pyrazin-2-ylamino]-3,3-dimethyl-1,3-dihydro-indol-2-one] |
| 100 to 300 | CNS(=O)(=O)C1CCN(c2nccn3nc(Nc4ccc5c(c4)NC(=O)C5(C)C)nc23)CC1 [E38, 1-[2-(3,3-dimethyl-2-oxo-2,3-dihydro-1H-indol-6-ylamino)-[1,2,4]triazolo[1,5-a]pyrazin-8-yl]-piperidine-4-sulfonic acid methylamide] |
